The text below walks through data of US20260159512A1, “BCAT2 INHIBITORS” (AGIOS PHARMACEUTICALS, INC., priority 2021, published 2026).

Common to all, as to settings: average where tested multiple times
Experiment [1] addresses T1, BCAT2 (Homo sapiens, UniProt O15382).
T1 sequence (O15382 28-392): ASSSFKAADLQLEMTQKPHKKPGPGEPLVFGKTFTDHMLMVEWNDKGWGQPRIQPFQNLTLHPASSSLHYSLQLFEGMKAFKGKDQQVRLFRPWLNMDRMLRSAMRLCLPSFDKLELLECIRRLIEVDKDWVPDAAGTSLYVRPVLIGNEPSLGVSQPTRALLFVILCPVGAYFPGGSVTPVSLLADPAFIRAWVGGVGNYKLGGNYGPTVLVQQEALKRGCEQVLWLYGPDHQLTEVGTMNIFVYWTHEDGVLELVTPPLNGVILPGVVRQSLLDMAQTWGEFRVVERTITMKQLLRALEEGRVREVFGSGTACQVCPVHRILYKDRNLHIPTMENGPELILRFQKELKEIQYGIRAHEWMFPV
In words: BCAT2 in vitro enzyme inhibition assay (resazurin/diaphorase-coupled fluorescence). The class given is biochemical. The procedure, abridged: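 Coupled fluorescence readout: glutamate formed from L-leucine/α-ketoglutarate transamination drives GDH/NAD/diaphorase reduction of resazurin (Ex 540/Em 590). Human BCAT2 was first exposed 1 h at room temperature to compound, top final 100 μM in 3-fold, 10-point series; substrate reaction ran 1 h before SDS quench, in technical duplicate with DMSO max and enzyme-free min controls.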
On the technique in general: Resazurin is reduced to fluorescent resorufin, in cell work by metabolically active cells.

Experiment [2] has as its target T2, hBCAT1 (Homo sapiens, UniProt P54687).
T2 sequence (P54687 1-386): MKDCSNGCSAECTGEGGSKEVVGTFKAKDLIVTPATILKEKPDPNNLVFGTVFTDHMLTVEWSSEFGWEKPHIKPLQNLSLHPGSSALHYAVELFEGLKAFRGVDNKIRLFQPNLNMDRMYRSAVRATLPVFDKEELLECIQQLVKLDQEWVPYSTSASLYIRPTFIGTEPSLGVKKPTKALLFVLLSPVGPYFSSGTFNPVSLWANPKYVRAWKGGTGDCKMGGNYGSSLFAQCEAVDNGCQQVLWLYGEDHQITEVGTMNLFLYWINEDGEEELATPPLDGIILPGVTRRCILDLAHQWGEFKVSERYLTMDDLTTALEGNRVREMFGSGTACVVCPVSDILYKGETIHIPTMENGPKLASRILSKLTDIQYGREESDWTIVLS
As to the kind of experiment: BCAT1 in vitro enzyme inhibition assay (resazurin/diaphorase-coupled fluorescence). The experiment is classed as biochemical. The gist of the method: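 Human BCAT1 activity read by resazurin/diaphorase-coupled fluorescence. Compounds added from 50× DMSO stocks at 1:50, giving 10-point 3-fold titrations from 100 μM top final concentration. Run in technical duplicate; repeat tests averaged.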

The target of experiment [3] is T1, BCAT2. As to the kind of experiment: BCAT2 in vitro cell inhibition using engineered A549 cells (KMV cell assay, 13C6-KMV by LC-MS/MS). The class given is cell-based. The arrangement: The result was an engineered A549 cell line that expressed endogenous BCAT2; endogenous in cells; host or cells: A549 cells with MUT and BCAT1 knocked out by CRISPR/CAS9; key to BCAT2 Cell Inhibition: A: less than or equal to 0.100 μM; B: greater than 0.100 and less than or equal to 0.500 μM; C: greater than 0.500 and less than or equal to 1.000 μM; d: greater than 1.000 μM; E: no fit.

By IC50 is commonly meant the concentration at which inhibition is half-maximal. Regarding `CC(C)Cc1nc2cnc(-c3nc[nH]n3)cc2n1[C@@H]1CCCC[C@H](NC(=O)c2ncc(Cl)s2)C1` [Example 374, 5-chloro-N-((1S,3R)-3-(2-isobutyl-6-(1H-1,2,4-triazol-3-yl)-1H-imidazo[4,5-c]pyridin-1-yl)cycloheptyl)thiazole-2-carboxamide], the IC50 in experiment [1] was ≤ 100 nM; in experiment [2], < 500 nM; in experiment [3], ≤ 100 nM.

Regarding `O=C(N[C@@H]1CCCC[C@H](n2c(-c3ccccc3F)nc3cnc(-c4nnc[nH]4)cc32)C1)c1ncc(Cl)s1` (single isomer, unassigned) [Example 87, 5-chloro-N-(3-(2-(2-fluorophenyl)-6-(4H-1,2,4-triazol-3-yl)-1H-imidazo[4,5-c]pyridin-1-yl)cycloheptyl)thiazole-2-carboxamide], the IC50 was ≤ 100 nM in experiment [1], 1000 to 5000 nM in experiment [2] and 100 to 500 nM in experiment [3].

Take `O=C(NC1CNCC(n2c(-c3ncccc3F)nc3cnc(-n4nccn4)cc32)C1)c1ncc(C(F)F)s1` (stereo not drawn) [Example 125, 5-(difluoromethyl)-N-(5-(2-(3-fluoropyridin-2-yl)-6-(2H-1,2,3-triazol-2-yl)-1H-imidazo[4,5-c]pyridin-1-yl)piperidin-3-yl)thiazole-2-carboxamide]: the IC50 is ≤ 100 nM in experiment [1], 1000 to 5000 nM in experiment [2] and 100 to 500 nM in experiment [3].

As to `CC(C)Cc1nc2cnc(-c3nc[nH]n3)cc2n1[C@@H]1CCC[C@H](NC(=O)c2ccc(C#N)s2)C1` [Example 344, 5-cyano-N-((1S,3R)-3-(2-isobutyl-6-(1H-1,2,4-triazol-3-yl)-1H-imidazo[4,5-c]pyridin-1-yl)cyclohexyl)thiophene-2-carboxamide], the figures for the IC50 in experiment [1], in experiment [2] and in experiment [3] were ≤ 100 nM, < 500 nM and ≤ 100 nM, respectively.

Consider `O=C(N[C@H]1CCC[C@@H](n2c(-c3ccccc3F)nc3cnc(-c4cc(F)ccn4)cc32)C1)c1ncc(Cl)s1` [Example 168, 5-chloro-N-((1S,3R)-3-(2-(2-fluorophenyl)-6-(4-fluoropyridin-2-yl)-1H-imidazo[4,5-c]pyridin-1-yl)cyclohexyl)thiazole-2-carboxamide], for which the figures for the IC50 in experiment [1], in experiment [2] and in experiment [3] were ≤ 100 nM, < 500 nM and ≤ 100 nM, respectively.

In the case of `COc1ccc(-c2nc3cnc(-c4nc[nH]n4)cc3n2[C@@H]2CCC[C@H](NC(=O)c3ccc(Cl)s3)C2)c(F)c1` [Example 351, 5-chloro-N-((1S,3R)-3-(2-(2-fluoro-4-methoxyphenyl)-6-(1H-1,2,4-triazol-3-yl)-1H-imidazo[4,5-c]pyridin-1-yl)cyclohexyl)thiophene-2-carboxamide], the IC50 in experiment [1] fell in the range of 100 to 500 nM; in experiment [2], 1000 to 5000 nM; in experiment [3], 500 to 1000 nM.

On to `O=C(N[C@H]1CCC[C@@H](n2c(-c3ncccc3F)nc3cnc(-c4nc[nH]n4)cc32)C1)c1ccc(Cl)s1` [Example 80, 5-chloro-N-((1S,3R)-3-(2-(3-fluoropyridin-2-yl)-6-(1H-1,2,4-triazol-3-yl)-1H-imidazo[4,5-c]pyridin-1-yl)cyclohexyl)thiophene-2-carboxamide], for which the IC50 in experiment [1] was ≤ 100 nM; in experiment [2] it was < 500 nM; in experiment [3], ≤ 100 nM.

On to `O=C(N[C@H]1CCC[C@@H](n2c(-c3ccccc3F)nc3cc(-n4nccn4)ncc32)C1)c1ncc(C(F)F)s1` [Example 148, 5-(difluoromethyl)-N-((1S,3R)-3-(2-(2-fluorophenyl)-6-(2H-1,2,3-triazol-2-yl)-3H-imidazo[4,5-c]pyridin-3-yl)cyclohexyl)thiazole-2-carboxamide], for which the IC50 in experiment [1] was ≤ 100 nM; in experiment [2] it was > 5000 nM; in experiment [3], > 1000 nM.

For the compound `O=C(N[C@H]1CCC[C@@H](n2c(-c3ccccn3)nc3cnc(-n4nccn4)cc32)C1)c1ncc(Br)s1` [Example 19, 5-bromo-N-((1S,3R)-3-(2-(pyridin-2-yl)-6-(2H-1,2,3-triazol-2-yl)-1H-imidazo[4,5-c]pyridin-1-yl)cyclohexyl)thiazole-2-carboxamide], the IC50 in experiment [1] was ≤ 100 nM; in experiment [2] it was < 500 nM; in experiment [3], ≤ 100 nM.

For `O=C(NC1CCCCC(n2c(-c3ccccc3F)nc3cnc(-c4nc[nH]n4)cc32)C1O)c1ncc(Cl)s1` (stereo not drawn) [Example 402, 5-chloro-N-((2-(2-fluorophenyl)-6-(1H-1,2,4-triazol-3-yl)-1H-imidazo[4,5-c]pyridin-1-yl)-2-hydroxycycloheptyl)thiazole-2-carboxamide], the IC50 is ≤ 100 nM in experiment [1], < 500 nM in experiment [2] and ≤ 100 nM in experiment [3].

As for `CNC(=O)c1ccc2c(c1)nc(-c1ccccn1)n2C1CC(NC(=O)c2ccc(Br)s2)CN(C)C1` (stereo not drawn) [Example 288, 1-(5-(5-bromothiophene-2-carboxamido)-1-methylpiperidin-3-yl)-N-methyl-2-(pyridin-2-yl)-1H-benzo[d]imidazole-5-carboxamide], the IC50 in experiment [1] is 500 to 1000 nM; in experiment [2], > 5000 nM. Moreover, the “BCAT2 Cell Inhibition” value in experiment [3] is “E”.

Regarding `CO[C@@H]1C[C@@H](NC(=O)c2ncc(Cl)s2)C[C@@H](n2c(-c3ccccc3F)nc3cnc(-n4cncn4)cc32)C1` (stereo in doubt) [Example 416, 5-chloro-N-((1S,3R,5R)-3-(2-(2-fluorophenyl)-6-(1H-1,2,4-triazol-1-yl)-1H-imidazo[4,5-c]pyridin-1-yl)-5-methoxycyclohexyl)thiazole-2-carboxamide], the IC50 was ≤ 100 nM in experiment [1], 1000 to 5000 nM in experiment [2] and ≤ 100 nM in experiment [3].

Regarding `CO[C@H]1C[C@H](NC(=O)c2ncc(Cl)s2)C[C@H](n2c(CC(C)C)nc3cnc(-n4nccn4)cc32)C1` [Example 421, 5-chloro-N-((1R,3S,5S)-3-(2-isobutyl-6-(2H-1,2,3-triazol-2-yl)-1H-imidazo[4,5-c]pyridin-1-yl)-5-methoxycyclohexyl)thiazole-2-carboxamide], the values for the half-inhibitory concentration (IC50) in experiment [1], in experiment [2] and in experiment [3] were ≤ 100 nM, 500 to 1000 nM and 100 to 500 nM, respectively.

For `CC(C)Cc1nc2cnc(-c3cccc(F)n3)cc2n1[C@H]1C[C@H](O)C[C@@H](NC(=O)c2ncc(Cl)s2)C1` (stereo in doubt) [Example 385, 5-chloro-N-((1S,3R,5R)-3-(6-(6-fluoropyridin-2-yl)-2-isobutyl-1H-imidazo[4,5-c]pyridin-1-yl)-5-hydroxycyclohexyl)thiazole-2-carboxamide], the IC50 in experiment [1] was ≤ 100 nM; in experiment [2], < 500 nM; in experiment [3], 100 to 500 nM.

For `CC(C)Cc1nc2cnc(-c3nnco3)cc2n1[C@@H]1CCC[C@H](NC(=O)c2ncc(Cl)s2)C1` [Example 380, 5-chloro-N-((1S,3R)-3-(2-isobutyl-6-(1,3,4-oxadiazol-2-yl)-1H-imidazo[4,5-c]pyridin-1-yl)cyclohexyl)thiazole-2-carboxamide], the values for the IC50 in experiment [1], in experiment [2] and in experiment [3] were 100 to 500 nM, > 5000 nM and > 1000 nM, respectively.

On to `CS(=O)(=O)N1C[C@H](NC(=O)c2ncc(Cl)s2)C[C@H](n2c(-c3ccccc3F)nc3cnc(-c4nc[nH]n4)cc32)C1` [Example 460, 5-chloro-N-((3R,5S)-5-(2-(2-fluorophenyl)-6-(1H-1,2,4-triazol-3-yl)-1H-imidazo[4,5-c]pyridin-1-yl)-1-(methylsulfonyl)piperidin-3-yl)thiazole-2-carboxamide], for which the IC50 was ≤ 100 nM in experiment [1], < 500 nM in experiment [2] and ≤ 100 nM in experiment [3].
